“Also recorded” adds a separate entry of the source.
Legend:
[1] = system: A549 (human non-small cell lung cancer); assay: Radiotherapy study in A549 SCID mouse xenograft model; assay type: in vivo
Experimental: Stimulated by these and other observations, the inventors recently conducted a small ^125I-NM404 pilot therapy study in SCID mice with human A549 lung tumor xenografts. ^125I-NM404 was administered as either a single dose or alternatively in 3 doses (once a week for 3 weeks) to groups of 6 mice and a separate cohort received an equivalent mass dose of unlabeled NM404 for comparison. Single doses were 50 or 500 μCi and the repeat dose group received a total of 3 weekly 50 μCi doses. Tumor growth was monitored for 10 weeks following final injection. […] New arms are now being initiated to cover the dose levels between the current ones in order to more accurately evaluate the therapeutic potential of this agent.
A549 (human non-small cell lung cancer, NSCLC, from ATCC) are maintained in Ham's F-12K media supplemented with 10% fetal bovine serum. […]. Animals are given free access to food and water, tumor growth and animal weight are monitored. […].
The tumor model used for this study was A549, a human non-small cell lung cancer, (NSCLC) obtained from ATCC (Manassas, Va.). The tumor cells are maintained in Ham's F-12K media supplemented with 10% fetal bovine serum. […]. Animals are given free access to food and water. Upon reaching 5-10 mm in tumor diameter, mice will be enrolled in the study.
A single intravenous injection of SF404A was performed at Day 0. For the control group, cold compound (C-NM404) has been injected. For treatment groups I-125-NM404 has been injected.
The study contained 5 groups; 4 treatment groups (n=6/group) and 1 control group (n=9). The iodine doses for the treatment groups were 50, 150, 250 and 500 μCi per mouse. The control group was dosed with an equivalent mass amount of C-NM404 (0 μCi).
Assessments were made until 10 weeks post-injection or until no animal in the control group is alive, whatever comes first. […]

[2] = system: SCC1 and SCC6 squamous cell tumors; assay: SCC1 and SCC6 xenografts in nude mice, single injection; assay type: in vivo
Text: Due to its 60-day physical half-life and low energy 35 KeV photon emission, iodine-125 is suitable for imaging experiments in mice and rats. Iodine-125 also affords therapeutic characteristics. In one imaging experiment (FIG. 6), 2 nude mice were each inoculated with subcutaneous squamous cell lines SCC1 and SCC6 tumor cell implants on opposing flanks. SCC1 and SSC6 cells were used because one is radiosensitive relative to the other. After 14 days when the average tumor size was approaching 0.5 cm in diameter, one of the mice received 20 μCi of I-125-NM-404 and the other one receive unlabeled NM404 in an equal mass dose. The mouse receiving the unlabeled cold compound had to be euthanized 20 days after injection due to both tumors reaching the termination size limit as defined in the animal use protocol. […] This mouse never did reach terminal tumor size and the mouse was actually euthanized after 90 days in order to collect histology sections.

[3] = system: mammary and intestinal tumors; assay: Apparent therapeutic responses in Apc Min/+ mammary and intestinal tumor mice; assay type: in vivo, Apc^Min/+ mouse
Text: During the course of mouse tumor uptake and retention studies with “imaging” doses (15-20 μCi/20 g mouse) of ^125I-labeled NM404, several apparent therapeutic responses have been observed (unpublished results). […] Some of these animals also lost all hair above larger mammary tumors at around 8 days after injection. Moreover, these mice also get intestinal tumors and usually suffer from intestinal bleeding resulting in severe anemia, which renders their feet white. Dr. Moser noted that the feet of these mice had reverted to a pink color around 5 days after a single injection of NM404. […] Another compelling example of tumor regression is illustrated in FIG. 6. Two litter mates each received SCC1 and SCC6 xenografts in their left and right flanks, respectively. One mouse received a single injection of ^125I-NM404 (20 μCi). […] These coincidental findings were reconfirmed in two separate age-matched groups each involving more than 6 mice. Although these observations with ^125I-NM404 are anecdotal at this point, they do seem to strongly indicate potential for radiotherapy applications particularly if labeled with iodine-131. Ongoing quantitative tumor uptake and retention studies in several animal tumor models will also provide sufficient data to initiate a comprehensive dosimetry analysis for this agent in order to estimate its true radiotherapeutic potential.

[4] = system: xenograft and spontaneous tumor models; assay: Imaging and tissue distribution across preclinical animal tumor models; assay type: in vivo
[5] = system: human PC-3 prostate tumor xenografts; assay: Scintigraphy and tissue distribution in SCID mice bearing human PC-3 prostate tumor xenografts; assay type: in vivo; conditions: day 5
Text: Tumor uptake, however, continued to increase up until day 5 when it reached 18% injected dose per gram of tumor. […] Tumor to background tissue ratios exceeded 4, 6.8, 23, and 9 in blood, liver, muscle, and prostate, respectively, 3 days after injection and continued to improve at 5 and 8 days. Again, although thyroid levels ranged from 26 to 54% injected dose per gram of tissue, these levels are actually quite low and represent an extremely small percentage of the injected dose when the exceedingly small mass of the organ is considered and the data are presented on a percent administered dose per organ basis.

## C[N+](C)(C)CCOP(=O)([O-])OCCCCCCCCCCCCCCCCCCc1ccc([125I])cc1 [Compound I-125-NM404]
[1]; 50-500 μCi
  dose relationship of effect on tumor volume: dose-linear effect
[1]; 50 μCi (n = 4), week 0
  average tumor volume: 198 mm^3
[1]; 50 μCi single injection, 10 weeks
  treatment effect on tumor volume: did not show any difference to control animals
[1]; 50 μCi, week 1
  average tumor volume: 599 mm^3
[1]; 50 μCi, week 2
  average tumor volume: 691 mm^3
[1]; 50 μCi, week 3
  average tumor volume: 987 mm^3
[1]; 50 μCi, week 4
  average tumor volume: 2283 mm^3
[1]; 50 μCi, week 5
  average tumor volume: 3977 mm^3
[1]; 50 μCi, week 6
  average tumor volume: 4951 mm^3
[1]; 50 μCi, week 7
  average tumor volume: 6999 mm^3
[1]; 50 μCi, week 8
  average tumor volume: 8188 mm^3
[1]; 50 μCi, week 9
  average tumor volume: 9978 mm^3
[1]; 50 μCi, week 10
  average tumor volume: 8342 mm^3
[1]; 150 microCi, large tumors (>1 cm)
  tumor growth: did not show any effects
[1]; 150 microCi, small tumors (<1 cm)
  tumor growth: stunned tumor growth
[1]; 150 μCi (n = 5), week 0
  average tumor volume: 1699 mm^3
[1]; 150 μCi, week 1
  average tumor volume: 1847 mm^3
[1]; 150 μCi, week 2
  average tumor volume: 2430 mm^3
[1]; 150 μCi, week 3
  average tumor volume: 2758 mm^3
[1]; 150 μCi, week 4
  average tumor volume: 4144 mm^3
[1]; 150 μCi, week 5
  average tumor volume: 4478 mm^3
[1]; 150 μCi, week 6
  average tumor volume: 4668 mm^3
[1]; 150 μCi, week 7
  average tumor volume: 4817 mm^3
[1]; 150 μCi, week 8
  average tumor volume: 6049 mm^3
[1]; 150 μCi, week 9
  average tumor volume: 7780 mm^3
[1]; 150 μCi, week 10
  average tumor volume: 6894 mm^3
[1]; 250 μCi (n = 6), week 0
  average tumor volume: 360 mm^3
[1]; 250 μCi single injection
  treatment effect on tumor volume: substantial and prolonged treatment effect
[1]; 250 μCi, 4 weeks following injection
  effect on the tumor: causes central necrosis
[1]; 250 μCi, week 2
  average tumor volume: 756 mm^3
[1]; 250 μCi, week 3
  average tumor volume: 821 mm^3
[1]; 500 μCi (n = 5), week 0
  average tumor volume: 1041 mm^3
[1]; 500 μCi dose
  signs of toxicity: none of the mice showed any signs of toxicity
[1]; 500 μCi single injection
  treatment effect on tumor volume: substantial and prolonged treatment effect
[1]; 500 μCi, week 1
  average tumor volume: 964 mm^3
[1]; 500 μCi, week 2
  average tumor volume: 1281 mm^3
[1]; 500 μCi, week 3
  average tumor volume: 1110 mm^3
[1]; 500 μCi, week 4
  average tumor volume: 1300 mm^3
[1]; 500 μCi, week 5
  average tumor volume: 1626 mm^3
[1]; 500 μCi, week 6
  average tumor volume: 1735 mm^3
[1]; 500 μCi, week 7
  average tumor volume: 1697 mm^3
[1]; pilot study, single 500 μCi dose
  tumor growth: significant regression in tumor growth
[2]; single injection 20 μCi, listed as 125I-NM404
  tumor response: regressed significantly; also recorded: regressed dramatically; also recorded: significantly reduced
[3]; after 21 days, both intestinal models
  survival versus untreated litter mates: easily outlived their untreated litter mates
[3]; single injection
  intestinal tumors remaining at dissection: only a very few, if any
[3]; single iv injection, 15-20 μCi/20 g mouse
  mammary tumor growth: tumor growth remains static
[4]; mammary and prostate tumors in mice
  time over which tumors could be imaged: > 60 days
[4]; mice
  period of prolonged tumor retention post-injection: 20 to 60 days

## C[N+](C)(C)CCOP(=O)([O-])OCCCCCCCCCCCCCCCCCCc1ccc(I)cc1 [NM-404, 18-(4-iodophenyl)-octadecylphosphocholine]
[5]
  tumor uptake: 18 % injected dose per gram of tumor
[1]; 0 μCi, equivalent mass dose, 10 weeks
  effect on tumor growth: no substantial effect on tumors growth
[1]; 3×50 micro-Ci versus single 150 micro-Ci
  therapy effect of fractionated dosing versus single dose: produced the same therapy effect
[1]; Control 0 μCi (n = 7), week 0
  average tumor volume: 1152 mm^3
[1]; Control 0 μCi, week 1
  average tumor volume: 1289 mm^3
[1]; Control 0 μCi, week 2
  average tumor volume: 1667 mm^3
[1]; Control 0 μCi, week 3
  average tumor volume: 2418 mm^3
[1]; Control 0 μCi, week 4
  average tumor volume: 3169 mm^3
[1]; Control 0 μCi, week 5
  average tumor volume: 3763 mm^3
[1]; Control 0 μCi, week 6
  average tumor volume: 4971 mm^3
[1]; Control 0 μCi, week 7
  average tumor volume: 6207 mm^3
[1]; Control 0 μCi, week 8
  average tumor volume: 6253 mm^3
[1]; Control 0 μCi, week 9
  average tumor volume: 7175 mm^3
[1]; Control 0 μCi, week 10
  average tumor volume: 7068 mm^3
[2]; unlabeled, equal mass dose
  time to euthanasia due to both tumors reaching termination size limit: 20 days
[4]; in vivo
  uptake of injected dose into the tumor tissue: 10-25%
[4]; preclinical models
  localization in infectious / inflammatory sites: does not localize in infectious sites; also recorded: is not retained in inflammatory tissues
  retention in normal, premalignant or hyperplastic tissues: is not retained in normal, premalignant, or hyperplastic tissues

From patent publication US9579406B2, “Phospholipid ether analogs as agents for detecting and locating cancer, and methods thereof” (Cellectar, Inc., priority 2004, dated 2017)
